18 molecules from PubChem BioAssay (NCI) can be followed below.

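Where inhibition never reached the appropriate level, the endpoint shown equals the highest concentration tested. Otherwise, values were interpolated linearly from a five-concentration, 48-hour dose response in 96-well plates. Abbreviation: GI50, concentration required for 50% inhibition of growth. At the TGI there is no net growth.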

What all share (test): inhibition of tumour cell growth, NCI panel, 48 h
The subject of assay [1] is IGROV1 ovarian.
The test system of assay [2] is MOLT-4 leukemia.
Assay [3] has as its system NCI-H460 lung.
The test system of assay [4] is OVCAR-4 ovarian.
The subject of assay [5] is RXF 393 renal.
Assay [6] has as its system SK-MEL-28 melanoma.
For assay [7], the system named is SNB-75 CNS.
For assay [8], the system named is U251 CNS.
Assay [9] has as its system UACC-62 melanoma.
For assay [10], the system named is CAKI-1 renal.

With `COc1ccc(Nc2ncnc3ccc(-c4cncc(NS(C)(=O)=O)c4)cc23)cc1Cl`, the GI50 in [1] is 1.4 µM; in [2], 1.5 µM; in assay [3], 4.11 µM; in assay [4] it was 4.22 µM; in assay [5], 2.08 µM; in assay [6] it was 2.75 µM. Moreover, the results for the GI50 in assay [7], in assay [8] and in assay [9] were 0.352 µM, 2.81 µM and 2.14 µM, respectively. The TGI in assay [1] turned out to be 4.46 µM; in [2] it was 4 µM; in [3], 17 µM; in assay [4], 83.1 µM; in assay [5], 5.63 µM; in assay [6], 18.4 µM. For the same molecule, the figures for the TGI in [7], in assay [8] and in [9] were 6.37 µM, 13.6 µM and 8.31 µM, respectively.

Regarding `CCCCNS(=O)(=O)c1ccc(-c2ccc3c(c2)-c2ccc(S(=O)(=O)NCCCC)cc2S3(=O)=O)cc1`, the TGI in assay [1] is > 100 µM; in [2] it was > 100 µM; in assay [3] it was > 100 µM; in [4], 15.4 µM; in [5], 30.6 µM; in assay [6] it was 29.7 µM. In addition, the figures for the TGI in assay [8] and in assay [9] were 55.5 µM and 34.3 µM, respectively.

Take `CCOC(=O)[C@@]12C(C)=CC(=O)O[C@]1(C)C1C(=O)NC(=O)C12` (some centres undefined): the TGI in [1], in [2], in assay [3], in assay [4], in assay [5] and in assay [6] was > 100 µM in each case. The TGI in assay [7], in assay [8] and in [9] was > 100 µM in each case.

Turning to `O=C(O)c1c2c(cc3c(=O)c4ccccc4[nH]c13)CCCC2`, the TGI in [1], in [2], in [3], in assay [5], in [6] and in assay [7] was > 100 µM throughout. The TGI in assay [9] is > 100 µM.

Consider `CCCCCCCC(=O)[O-].CCCCCCCC(=O)[O-].N.N.N.N.[Co+3].[O-][Cl+3]([O-])([O-])[O-]`, for which the GI50 in assay [1] was 40.3 µM; in assay [2], > 100 µM; in assay [5], 74.6 µM; in [6], > 100 µM; in assay [7], > 100 µM; in [9], > 100 µM. Further, the TGI in [1], in assay [2], in assay [5], in [6], in assay [7] and in [9] was > 100 µM in each case.

In the case of `O=C1C(Cl)=C(Cl)C(=O)N1c1ccc(Cl)c(Cl)c1Cl`, the TGI in [10] is 56.2 µM; in assay [1], > 100 µM; in assay [2], > 100 µM; in assay [3], > 100 µM; in assay [4], > 100 µM; in [6] it was > 100 µM. For the same molecule, the TGI in assay [7], in assay [8] and in [9] was > 100 µM in each case.

Regarding `O=C1OC(=O)C23CSCC12C1C=CC3O1` (centres undefined), the TGI in [10], in assay [1], in assay [2], in assay [3], in [5] and in [6] was > 100 µM throughout. Besides, the TGI in assay [7], in [8] and in assay [9] was > 100 µM in each case.

For the molecule `CC(=O)OCC1OC(n2c(=O)[nH]c(=O)c3n[nH]nc32)C(OC(C)=O)C(OC(C)=O)C1OC(C)=O` (centres undefined), the TGI in assay [10], in [1], in assay [2], in assay [3], in assay [4] and in [5] was > 100 µM each time. Also, the TGI in assay [6], in assay [8] and in assay [9] was > 100 µM each time.

For the molecule `COc1cc(Cc2c(C)cc(OC)c3[nH]c4ccccc4c23)cc2c1[nH]c1ccccc12`, the GI50 in assay [1] was 9.03 µM; in assay [2], 5.69 µM; in [3] it was 5.13 µM; in assay [6], 8.61 µM; in assay [8], 4.96 µM; in [9], 5.61 µM. Further, the TGI was > 25 µM in assay [1]; > 25 µM in assay [2]; 12.1 µM in [3]; > 25 µM in assay [6]; 9.84 µM in assay [8]; > 25 µM in [9].

For `CN(C)CCN1C(=O)c2cccc3c(/C=C/CN4C(=O)c5cccc6cccc(c56)C4=O)ccc(c23)C1=O`, the GI50 in assay [10] is 13.4 µM; in assay [1] it was > 100 µM; in assay [2], > 100 µM; in [3] it was > 100 µM; in [4], > 100 µM; in [5], 59.2 µM. Besides, the figures for the GI50 in [6], in [8] and in assay [9] were 0.766 µM, 46.5 µM and 16.3 µM, respectively. The TGI in [10] was 28.6 µM; in [1], > 100 µM; in assay [2] it was > 100 µM; in assay [3] it was > 100 µM; in assay [4], > 100 µM; in assay [5], > 100 µM. Further, the TGI in assay [6] was 4.71 µM; in assay [8], > 100 µM; in assay [9], 33.1 µM.

For the molecule `C1CSC[C@H]2COC[C@@H](CSCCS1)S2`, the TGI in assay [2], in assay [3], in assay [4], in assay [6], in [7] and in assay [8] was > 100 µM throughout.

With `O=C1CC(c2cccc(Cl)c2)Oc2ccccc21` (centres undefined), the TGI was determined as 23.3 µM in [10]; 50.7 µM in assay [1]; 42.1 µM in assay [3]; 94.1 µM in assay [4]; 42.2 µM in [6]; 66.6 µM in assay [7]. Also, the TGI was > 100 µM in assay [8] and 29.8 µM in [9].

For the molecule `CC12OC(C(=O)C13CC3)C1C(=O)c3c(O)ccc(O)c3C(=O)C12` (centres undefined), the GI50 was 4.68 µM in assay [10]; 13.4 µM in assay [1]; 2.35 µM in assay [2]; 31.5 µM in [3]; 16.7 µM in assay [5]; 24.6 µM in [6]. Further, the GI50 in [7] was 20.6 µM; in assay [8], 14.7 µM. The TGI in assay [10] is 17.9 µM; in assay [1] it was 29.7 µM; in [2] it was 10.2 µM; in [3] it was > 100 µM; in assay [5], 37.6 µM; in assay [6] it was 78.7 µM. Further, the TGI was 40.8 µM in [7] and 31.1 µM in assay [8].

For `O=C1CC(C2(O)C(=O)Nc3ccc([N+](=O)[O-])cc32)c2ccccc21` (centres undefined), the TGI in assay [1] came to 45.1 µM; in [2], 57.7 µM; in assay [3], 29.9 µM; in assay [4], 88.1 µM; in assay [5] it was 45.5 µM; in assay [6], 62 µM. The TGI was > 100 µM in [7], 37.8 µM in [8] and 40.2 µM in assay [9].

Take `CC(C)C1(NC(=O)C2CC3c4cccc5[nH]cc(c45)CC3N(C)C2)OC2(O)C3CCCN3C(=O)C(Cc3ccccc3)N2C1=O` (centres undefined): the TGI was > 100 µM in assay [10]; > 100 µM in [1]; 80.4 µM in assay [2]; > 100 µM in assay [3]; > 100 µM in [4]; > 100 µM in [6]. In addition, the TGI in [7] was 86.8 µM; in assay [8], > 100 µM; in [9], > 100 µM.

Take `O=c1c2ccccc2oc2ccccc12` (tested in a mixture with another compound): the TGI in assay [10] was > 100 µM; in assay [1], 22.1 µM; in assay [3] it was 25.9 µM; in assay [4] it was > 100 µM; in [7], 7.58 µM; in assay [9], > 100 µM.

Regarding `O=C1OCC2=C1C(c1cccc(C(F)(F)F)c1)c1cc3c(cc1N2CCO)OCCO3` (centres undefined), the GI50 in assay [10] is 1.15 µM; in assay [1] it was 2.75 µM; in assay [2], 1.93 µM; in [3], 1.22 µM; in assay [4], 6.41 µM; in assay [6], 1.71 µM. Also, the results for the GI50 in assay [8] and in assay [9] were 1.36 µM and 0.901 µM, respectively. The TGI in assay [10], in assay [1], in [2], in assay [3], in [4] and in assay [6] was > 33.3 µM in each case. In addition, the TGI in assay [8] and in assay [9] was > 33.3 µM each time.

Regarding `C=CC1C(CC2OC(CO)C(O)C(O)C2O)OC=C2C(=O)OCCC21O` (centres undefined), the GI50 in assay [10] was 30.6 µM; in assay [1], 8.36 µM; in assay [2], 3.78 µM; in assay [3], 28.4 µM; in [4], 5.82 µM; in [6], 0.116 µM. The GI50 was 1.84 µM in assay [7], 13.2 µM in assay [8] and 21.2 µM in assay [9]. The TGI in [10] was 78.7 µM; in [1] it was 53.1 µM; in assay [2] it was 30.5 µM; in assay [3], > 100 µM; in assay [4], 30.2 µM; in assay [6], 19.2 µM. In addition, the TGI worked out at 18.6 µM in assay [7], 28 µM in assay [8] and 53.3 µM in assay [9].
